Test results: patent publication US4339426A, “Bleomycin analog” (Regents of the University of California, priority 1980, dated 1982)

Experiments:
VX2 adenocarcinomas = experiment: Tumor localization scans in rabbits bearing VX2 adenocarcinomas; assay type: in vivo, white rabbits; details: for concentration of radioactivity in kidneys and bladder: two hours after injection
Procedure: Solutions of the indium-111 chelates of BLEDTA (A) or BLEDTA (B) were injected into the ear veins of white rabbits bearing type VX2 adenocarcinomas implanted under the right foreleg and the right hind leg. Two hours after injection, and again 18 to 24 hours after injection, the rabbits were scanned with a gamma camera, which provides a two-dimensionaldisplay of the distribution of radioactivity in the body. Scans were obtained 24 hours after injection of 700 μCi of ^111 In-BLEDTA(A).

KHJJ tumor = experiment: Organ distribution and tumor uptake of 111In-BLEDTA(B) in BALB/c mice with KHJJ tumor (Table II); assay type: in vivo
Procedure: The two bleomycin analogs-BLEDTA(A) and (B)-were rapidly and specifically labelled with ^111 In^3.spsp.+. A small aliquot of a dilute solution (10^-4 M) of BLEDTA(A) and (B) respectively in 0.1 M citrate (pH 2.8) was added to a container of dry ^111 InCl3, and incubated for 5 minutes at room temperature. The solutions were then diluted with normal saline solution for injection.
Following the injection of ^111 In-BLEDTA(B) into the tail veins of specially prepared BALB/c mice, the organ distribution and tumor uptake of radioactivity were determined. A tumor line, "KHJJ", derived from a primary mammary carcinoma arising in a mouse and maintained for over 100 transplant generations was used for the assay. Transplantation was by subcutaneous implantation of tumor fragments about 1 mm in diameter into the flank. The studies were carried out after 14 days of growth, when the tumor had reached a size of about 1 cm^3. On histological examination,the tumor has a "carcinoma-like" pattern with a predominance of islands of round or polygonal malignant cells with little stroma and a generally undifferentiated appearance. After transplantation, the tumor takes in almost all animals and grows without metastasizing or killing the mice within 14 days.
[…] After 18 hours, each mouse was anesthetized with ether, and blood was collected from the jugular vein into two preweighed capillary tubes. The mouse then was killed instantly by cervical dislocation and the major organs excised. Samples of muscle, skin, bone (left femur plus marrow), tail, and tumor also were taken. All tissue samples were weighed immediately after excision and counted in a well-type scintillation counter.

[1] = 24 hours after injection of 700 μCi
[2] = Table II, BLEDTA B 18 hours after tail vein injection

SMILES | visualization of small tumor 1 cm in diameter under right foreleg (VX2 adenocarcinomas; [1]) | visualization of tumor 2 to 3 cm in diameter under right hind leg (VX2 adenocarcinomas; [1]) | concentration of radioactivity in kidneys and bladder (VX2 adenocarcinomas) | uptake of radioactivity in liver and bone (KHJJ tumor; 18 hours) | Distribution and uptake: Blood (KHJJ tumor; [2]) | Distribution and uptake: Bone (KHJJ tumor; [2]) | Distribution and uptake: Kidneys (KHJJ tumor; [2]) | Distribution and uptake: Liver (KHJJ tumor; [2]) | Distribution and uptake: Lungs (KHJJ tumor; [2]) | Distribution and uptake: Muscle (KHJJ tumor; [2]) | Distribution and uptake: Skin (KHJJ tumor; [2]) | Distribution and uptake: Spleen (KHJJ tumor; [2]) | Distribution and uptake: Tumor (KHJJ tumor; Table II, KHJJ tumor, BLEDTA B 18 hours after tail vein injection) | tumor/organ radioactivity concentration ratios (KHJJ tumor; all organs examined except the kidneys)
Cc1c(N)nc(C(CC(N)=O)NCC(N)C(N)=O)nc1C(=O)NC(C(=O)NC(C)C(O)C(C)C(=O)NC(C(=O)NCCc1nc(-c2nc(C(=O)NCCC[S+](C)CC(=O)Nc3ccc(C(CN(CC(=O)O)CC(=O)O)N(CC(=O)O)CC(=O)O)cc3)cs2)cs1)C(C)O)C(OC1OC(CO)C(O)C(O)C1OC1OC(CO)C(O)C(OC(N)=O)C1O)c1cnc[nH]1 (stereo not drawn) [BLEDTA(A)] | clearly visualized | strikingly evident | high concentrations of radioactivity in the kidneys and bladder | – | – | – | – | – | – | – | – | – | – | –
Cc1c(N)nc(C(CC(N)=O)NCC(N)C(N)=O)nc1C(=O)NC(C(=O)NC(C)C(O)C(C)C(=O)NC(C(=O)NCCc1nc(-c2nc(C(=O)NCCCSCC(=O)Nc3ccc(C(CN(CC(=O)O)CC(=O)O)N(CC(=O)O)CC(=O)O)cc3)cs2)cs1)C(C)O)C(OC1OC(CO)C(O)C(O)C1OC1OC(CO)C(O)C(OC(N)=O)C1O)c1cnc[nH]1 (stereo not drawn) [BLEDTA(B)] | – | – | high concentrations of radioactivity in the kidneys and bladder | quite low | .205 ± .066 % of injected radioactivity pe | .188 ± .080 % of injected radioactivity pe | 1.023 ± .333 % of injected radioactivity pe | .263 ± .068 % of injected radioactivity pe | .254 ± .067 % of injected radioactivity pe | .063 ± .015 % of injected radioactivity pe | .166 ± .052 % of injected radioactivity pe | .327 ± .088 % of injected radioactivity pe | .393 ± .015 % of injected radioactivity pe | Favorable
